Test results from US20260027116A1, “Methods of Treating Chronic Graft-Versus-Host Disease Following Allogeneic Hematopoietic Stem Cell Transplantation” (Kadmon Corporation, LLC, priority 2022, published 2026).

Experiments:
[1] = Example 1: plasma pharmacokinetics (Cmax, Tmax, AUC0-6 hr) of belumosudil and metabolites; format: in vivo, human; conditions: for AUC0-6 hr, Geometric Mean (Geometric Coefficient of Variation): plasma
Protocol: Cmax was the maximum observed plasma concentration, obtained by a non-compartmental analysis. […] Timeframe: Cycles 1 and 2: pre-dose (0 hour), 1, 2, 3, 4, 5, and 6 hours post-dose on Day 1. […] Here, ‘number analyzed’=participants with available data for each specified category.
Tmax was defined as time to reach maximum observed plasma concentration, obtained by a non-compartmental analysis. […] Timeframe: Cycles 1 and 2: pre-dose (0 hour), 1, 2, 3, 4, 5, and 6 hours post-dose on Day 1. Analysis was performed on PK population. Here, ‘number analyzed’=participants with available data for each specified category.
AUC0-6 hr was defined as area under the plasma concentration versus time curve from time 0 to 6 hours post-dose, obtained by a non-compartmental analysis from the concentration-time data. […] Timeframe: Cycles 1 and 2: pre-dose (0 hour), 1, 2, 3, 4, 5, and 6 hours post-dose on Day 1. Analysis was performed on PK population. Here, ‘number analyzed’=participants with available data for each specified category.

cGVHD symptom burden = assay: Example 1: Lee Symptom Scale (LSS) score; format: in vivo, human; conditions: for Change From Baseline in Overall Score on Lee cGvHD Symptom Scale, Mean (Standard Deviation): Cohort 1: 200 mg QD
Protocol: Lee Symptom Scale (LSS) summary score measures the effect on patients' functioning and well-being. The Lee Symptom Scale is a 30-item scale developed to measure the symptoms of cGVHD and is described in Lec S J, Cook E F, Soiffer R, Antin J H. Development and validation of a scale to measure symptoms of chronic graft-versushost disease. Biol Blood Marrow Transplant 2002; 8:444-452.
All responses were assessed by the investigators.
Change From Baseline in Overall Score on Lee cGvHD Symptom Scale at Specified Time Points. Lee cGVHD symptom scale, a patient-reported symptom scale used to measure symptom burden and has 7 subscales (Skin, Eyes and Mouth, Breathing, Eating and Digestion, Muscles and Joints, Energy, and Mental and Emotional) with ratings as follows: 0—Not at all, 1—Slightly, 2—Moderately, 3—Quite a bit, 4—Extremely, with lower values representing better outcome. Score for each subscale was normalized to a score ranged from 0 to 100, where higher score=worse symptoms. An overall score was calculated as average of these 7 subscales. EOT visit was performed within 3 days after the participant's last dose of study drug. Baseline value was defined as valid and last non-missing value obtained within 28 days prior to participant receiving first study medication. […] Analysis was performed on mITT population. Here, ‘number analyzed’=participants with available data for each specified category. Here, ‘0’ in the number analyzed field signifies that none of the participants were available for the analysis at the specified time points.

CC(C)NC(=O)COc1cccc(-c2nc(Nc3ccc4[nH]ncc4c3)c3ccccc3n2)c1 [Belumosudil, 2-{3-[4-(1H-indazol-5-ylamino)-2-quinazolinyl]phenoxy}-N-(propan-2-yl) acetamide]
Cmax, geometric mean (geometric CV) ([1]; Cycle 1 Day 1, Cohort 1, belumosudil 200 mg QD): 2500 nanograms per milliliter | Cmax, geometric mean (geometric CV) ([1]; Cycle 1 Day 1, Cohort 2, belumosudil 200 mg BID): 1400 nanograms per milliliter | Cmax, geometric mean (geometric CV) ([1]; Cycle 1 Day 1, Cohort 3, belumosudil 400 mg QD): 2960 nanograms per milliliter | Cmax, geometric mean (geometric CV) ([1]; Cycle 2 Day 1, Cohort 1, belumosudil 200 mg QD): 2020 nanograms per milliliter | Cmax, geometric mean (geometric CV) ([1]; Cycle 2 Day 1, Cohort 2, belumosudil 200 mg BID): 1890 nanograms per milliliter | Cmax, geometric mean (geometric CV) ([1]; Cycle 2 Day 1, Cohort 3, belumosudil 400 mg QD): 3270 nanograms per milliliter | AUC0-6 hr, Geometric Mean (Geometric Coefficient of Variation) ([1]; Belumosudil 200 mg BID, Cycle 1 Day 1): 4960 hours*nanograms per milliliter | AUC0-6 hr, Geometric Mean (Geometric Coefficient of Variation) ([1]; Belumosudil 200 mg BID, Cycle 2 Day 1): 7190 hours*nanograms per milliliter | AUC0-6 hr, Geometric Mean (Geometric Coefficient of Variation) ([1]; Belumosudil 200 mg QD, Cycle 1 Day 1): 8350 hours*nanograms per milliliter | AUC0-6 hr, Geometric Mean (Geometric Coefficient of Variation) ([1]; Belumosudil 200 mg QD, Cycle 2 Day 1): 7090 hours*nanograms per milliliter | AUC0-6 hr, Geometric Mean (Geometric Coefficient of Variation) ([1]; Belumosudil 400 mg QD, Cycle 1 Day 1): 11500 hours*nanograms per milliliter | AUC0-6 hr, Geometric Mean (Geometric Coefficient of Variation) ([1]; Belumosudil 400 mg QD, Cycle 2 Day 1): 12000 hours*nanograms per milliliter | LSS improvement, nonresponder, n/N (cGVHD symptom burden; Cohort 1 200 mg QD): 1/6 | LSS improvement, responder, n/N (cGVHD symptom burden; Cohort 1 200 mg QD): 8/11 | Change From Baseline in Overall Score on Lee cGvHD Symptom Scale, Mean (Standard Deviation) (cGVHD symptom burden; Cycle 3, Day 1): −3.0 (8.5) score on a scale | Change From Baseline in Overall Score on Lee cGvHD Symptom Scale, Mean (Standard Deviation) (cGVHD symptom burden; Cycle 5, Day 1): −3.7 (11.0) score on a scale | Change From Baseline in Overall Score on Lee cGvHD Symptom Scale, Mean (Standard Deviation) (cGVHD symptom burden; Cycle 7, Day 1): −4.9 (8.4) score on a scale | Change From Baseline in Overall Score on Lee cGvHD Symptom Scale, Mean (Standard Deviation) (cGVHD symptom burden; Cycle 9, Day 1): −3.7 (10.7) score on a scale | Change From Baseline in Overall Score on Lee cGvHD Symptom Scale, Mean (Standard Deviation) (cGVHD symptom burden; Cycle 11, Day 1): −3.4 (11.5) score on a scale | Change From Baseline in Overall Score on Lee cGvHD Symptom Scale, Mean (Standard Deviation) (cGVHD symptom burden; Cycle 12, Day 1): −3.9 (8.1) score on a scale | Change From Baseline in Overall Score on Lee cGvHD Symptom Scale, Mean (Standard Deviation) (cGVHD symptom burden; Cycle 13, Day 1): −5.8 (14.7) score on a scale | Change From Baseline in Overall Score on Lee cGvHD Symptom Scale, Mean (Standard Deviation) (cGVHD symptom burden; Cycle 14, Day 1): −1.6 (17.1) score on a scale | Change From Baseline in Overall Score on Lee cGvHD Symptom Scale, Mean (Standard Deviation) (cGVHD symptom burden; Cycle 15, Day 1): −4.8 (15.8) score on a scale | Change From Baseline in Overall Score on Lee cGvHD Symptom Scale, Mean (Standard Deviation) (cGVHD symptom burden; Cycle 16, Day 1): −4.6 (16.1) score on a scale | Change From Baseline in Overall Score on Lee cGvHD Symptom Scale, Mean (Standard Deviation) (cGVHD symptom burden; Cycle 27, Day 1): −3.5 (25.3) score on a scale | Change From Baseline in Overall Score on Lee cGvHD Symptom Scale, Mean (Standard Deviation) (cGVHD symptom burden; Cycle 28, Day 1): 4.4 (13.4) score on a scale | Change From Baseline in Overall Score on Lee cGvHD Symptom Scale, Mean (Standard Deviation) (cGVHD symptom burden; Cycle 29, Day 1): −2.8 (23.7) score on a scale | Change From Baseline in Overall Score on Lee cGvHD Symptom Scale, Mean (Standard Deviation) (cGVHD symptom burden; Cycle 30, Day 1): 9.0 (7.5) score on a scale | Change From Baseline in Overall Score on Lee cGvHD Symptom Scale, Mean (Standard Deviation) (cGVHD symptom burden; Cycle 31, Day 1): −4.8 (27.9) score on a scale | Change From Baseline in Overall Score on Lee cGvHD Symptom Scale, Mean (Standard Deviation) (cGVHD symptom burden; Cycle 32, Day 1): 10.3 (6.9) score on a scale | Change From Baseline in Overall Score on Lee cGvHD Symptom Scale, Mean (Standard Deviation) (cGVHD symptom burden; Cycle 33, Day 1): 0.5 (20.7) score on a scale | Change From Baseline in Overall Score on Lee cGvHD Symptom Scale, Mean (Standard Deviation) (cGVHD symptom burden; Cycle 34, Day 1): 13.5 (3.6) score on a scale | Change From Baseline in Overall Score on Lee cGvHD Symptom Scale, Mean (Standard Deviation) (cGVHD symptom burden; Cycle 35, Day 1): −2.5 (23.3) score on a scale | Change From Baseline in Overall Score on Lee cGvHD Symptom Scale, Mean (Standard Deviation) (cGVHD symptom burden; Cycle 36, Day 1): 7.5 (6.4) score on a scale | Change From Baseline in Overall Score on Lee cGvHD Symptom Scale, Mean (Standard Deviation) (cGVHD symptom burden; Cycle 37, Day 1): −5.3 (29.0) score on a scale | Change From Baseline in Overall Score on Lee cGvHD Symptom Scale, Mean (Standard Deviation) (cGVHD symptom burden; Cycle 38, Day 1): 9.1 (5.2) score on a scale | Change From Baseline in Overall Score on Lee cGvHD Symptom Scale, Mean (Standard Deviation) (cGVHD symptom burden; Cycle 39, Day 1): −6.2 (25.9) score on a scale | Change From Baseline in Overall Score on Lee cGvHD Symptom Scale, Mean (Standard Deviation) (cGVHD symptom burden; Cycle 40, Day 1): 2.7 (—) score on a scale | Change From Baseline in Overall Score on Lee cGvHD Symptom Scale, Mean (Standard Deviation) (cGVHD symptom burden; Cycle 41, Day 1): −25.7 (—) score on a scale | Change From Baseline in Overall Score on Lee cGvHD Symptom Scale, Mean (Standard Deviation) (cGVHD symptom burden; Cycle 42, Day 1): 4.6 (—) score on a scale | Change From Baseline in Overall Score on Lee cGvHD Symptom Scale, Mean (Standard Deviation) (cGVHD symptom burden; Cycle 43, Day 1): −20.4 (—) score on a scale | Change From Baseline in Overall Score on Lee cGvHD Symptom Scale, Mean (Standard Deviation) (cGVHD symptom burden; Cycle 44, Day 1): 4.3 (—) score on a scale | Change From Baseline in Overall Score on Lee cGvHD Symptom Scale, Mean (Standard Deviation) (cGVHD symptom burden; Cycle 46, Day 1): 4.6 (—) score on a scale | Change From Baseline in Overall Score on Lee cGvHD Symptom Scale, Mean (Standard Deviation) (cGVHD symptom burden; Cycle 47, Day 1): −6.8 (—) score on a scale | Change From Baseline in Overall Score on Lee cGvHD Symptom Scale, Mean (Standard Deviation) (cGVHD symptom burden; Cycle 48, Day 1): 2.4 (—) score on a scale | Change From Baseline in Overall Score on Lee cGvHD Symptom Scale, Mean (Standard Deviation) (cGVHD symptom burden; Cycle 50, Day 1): 4.5 (—) score on a scale | Change From Baseline in Overall Score on Lee cGvHD Symptom Scale, Mean (Standard Deviation) (cGVHD symptom burden; Cycle 51, Day 1): −12.0 (—) score on a scale | Change From Baseline in Overall Score on Lee cGvHD Symptom Scale, Mean (Standard Deviation) (cGVHD symptom burden; Cycle 52, Day 1): 6.0 (—) score on a scale | Change From Baseline in Overall Score on Lee cGvHD Symptom Scale, Mean (Standard Deviation) (cGVHD symptom burden; Cycle 53, Day 1): −19.2 (—) score on a scale | Change From Baseline in Overall Score on Lee cGvHD Symptom Scale, Mean (Standard Deviation) (cGVHD symptom burden; Cycle 54, Day 1): 4.9 (—) score on a scale | Change From Baseline in Overall Score on Lee cGvHD Symptom Scale, Mean (Standard Deviation) (cGVHD symptom burden; Cycle 55, Day 1): −16.8 (—) score on a scale | Change From Baseline in Overall Score on Lee cGvHD Symptom Scale, Mean (Standard Deviation) (cGVHD symptom burden; Cycle 56, Day 1): 1.8 (—) score on a scale | Change From Baseline in Overall Score on Lee cGvHD Symptom Scale, Mean (Standard Deviation) (cGVHD symptom burden; Cycle 57, Day 1): −17.6 (—) score on a scale | Change From Baseline in Overall Score on Lee cGvHD Symptom Scale, Mean (Standard Deviation) (cGVHD symptom burden; Cycle 58, Day 1): 5.4 (—) score on a scale | Change From Baseline in Overall Score on Lee cGvHD Symptom Scale, Mean (Standard Deviation) (cGVHD symptom burden; Cycle 59, Day 1): −12.7 (—) score on a scale | Change From Baseline in Overall Score on Lee cGvHD Symptom Scale, Mean (Standard Deviation) (cGVHD symptom burden; Cycle 60, Day 1): 4.2 (—) score on a scale | Change From Baseline in Overall Score on Lee cGvHD Symptom Scale, Mean (Standard Deviation) (cGVHD symptom burden; Cycle 61, Day 1): −19.3 (—) score on a scale | Change From Baseline in Overall Score on Lee cGvHD Symptom Scale, Mean (Standard Deviation) (cGVHD symptom burden; Cycle 62, Day 1): 4.4 (—) score on a scale | Change From Baseline in Overall Score on Lee cGvHD Symptom Scale, Mean (Standard Deviation) (cGVHD symptom burden; Cycle 63, Day 1): −18.0 (—) score on a scale | Change From Baseline in Overall Score on Lee cGvHD Symptom Scale, Mean (Standard Deviation) (cGVHD symptom burden; Cycle 67, Day 1): −21.9 (—) score on a scale | Change From Baseline in Overall Score on Lee cGvHD Symptom Scale, Mean (Standard Deviation) (cGVHD symptom burden; EOT): −4.3 (11.7) score on a scale
